# Target: T1, BTK (Homo sapiens, UniProt Q06187)
# T1 construct: purchased Upstate 14-552
# Assay: In vitro BTK kinase assay: BTK-POLYGAT-LS assay
# Assay type: biochemical
# Details: 10 uM ATP, read-out: IC50 (10 uMATP)
# T1 sequence (Q06187 whole entry): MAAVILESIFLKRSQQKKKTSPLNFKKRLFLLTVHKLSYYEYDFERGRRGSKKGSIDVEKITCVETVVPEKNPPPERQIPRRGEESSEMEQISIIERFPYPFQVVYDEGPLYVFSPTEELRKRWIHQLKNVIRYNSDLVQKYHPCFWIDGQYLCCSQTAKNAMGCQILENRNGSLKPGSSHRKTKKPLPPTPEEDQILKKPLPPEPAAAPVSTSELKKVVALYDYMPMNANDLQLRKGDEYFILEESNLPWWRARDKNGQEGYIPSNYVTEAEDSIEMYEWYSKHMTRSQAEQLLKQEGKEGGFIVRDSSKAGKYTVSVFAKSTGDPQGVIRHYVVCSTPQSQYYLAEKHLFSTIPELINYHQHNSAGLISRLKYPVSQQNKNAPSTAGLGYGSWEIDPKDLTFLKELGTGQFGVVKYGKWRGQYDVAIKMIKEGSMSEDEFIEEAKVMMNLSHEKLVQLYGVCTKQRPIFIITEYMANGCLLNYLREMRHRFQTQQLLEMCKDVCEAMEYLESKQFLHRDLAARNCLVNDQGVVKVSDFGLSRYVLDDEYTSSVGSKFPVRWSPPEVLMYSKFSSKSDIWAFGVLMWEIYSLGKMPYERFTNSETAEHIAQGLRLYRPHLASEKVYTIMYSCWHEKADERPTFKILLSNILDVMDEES
row,IC50,SMILES
1,10 to 99 nM,"O=C(NC1CCCc2cc(-c3ncnc4[nH]ncc34)ccc21)c1nc2ccccc2s1 (stereo not shown) [Example I-106, N-(6-(1H-pyrazolo[3,4-d]pyrimidin-4-yl)-1,2,3,4-tetrahydronaphthalen-1-yl)benzo[d]thiazole-2-carboxamide]"
2,< 10 nM,"O=C(NC1CCCc2cc(-c3ncnc4[nH]ncc34)ccc21)c1cc2c(s1)CCCC2 (stereo not shown) [Example I-107, N-(6-(1H-pyrazolo[3,4-d]pyrimidin-4-yl)-1,2,3,4-tetrahydronaphthalen-1-yl)-4,5,6,7-tetrahydrobenzo[b]thiophene-2-carboxamide]"
3,10 to 99 nM,"O=C(NCc1ccc(-c2ncnc3[nH]ncc23)cc1C(F)(F)F)c1nc2c(s1)CCCC2 [Example I-108, N-(4-(1H-pyrazolo[3,4-d]pyrimidin-4-yl)-2-(trifluoromethyl)benzyl)-4,5,6,7-tetrahydrobenzo[d]thiazole-2-carboxamide]"
4,100 to 999 nM,"O=C(NCc1ncc(-c2ncnc3[nH]ncc23)cc1F)c1cc2c(s1)CCCC2 [Example I-109, N-((3-fluoro-5-(1H-pyrazolo[3,4-d]pyrimidin-4-yl)pyridin-2-yl)methyl)-4,5,6,7-tetrahydrobenzo[b]thiophene-2-carboxamide]"
5,10 to 99 nM,"O=C(NCc1ncc(-c2ccnc3[nH]ncc23)cc1F)c1cc2c(s1)CCCC2 [Example I-110, N-((3-fluoro-5-(1H-pyrazolo[3,4-b]pyridin-4-yl)pyridin-2-yl)methyl)-4,5,6,7-tetrahydrobenzo[b]thiophene-2-carboxamide]"
6,< 10 nM,"CC(C)(C)c1ccc(C(=O)NCc2ccc(-c3ncnc4[nH]c(-c5ccc(C(=O)N6CCOCC6)cc5)cc34)cc2)cc1 [Example I-111, 4-(tert-butyl)-N-(4-(6-(4-(morpholine-4-carbonyl)phenyl)-7H-pyrrolo[2,3-d]pyrimidin-4-yl)benzyl)benzamide]"
7,< 10 nM,"CC(NC(=O)c1cnc(C(C)(C)C)s1)c1ccc(-c2ncnc3cc(-c4cnn(C)c4)[nH]c23)cc1 (stereo not shown) [Example I-114, 2-(tert-butyl)-N-(1-(4.-(6-(1-methyl-1H-pyrazol-4-yl)-5H-pyrrolo[3,2-d]pyrimidin-4-yl)phenyl)ethyl)thiazole-5-carboxamide]"
8,< 10 nM,"Cc1cc(-c2ccnc3[nH]ncc23)ncc1CNC(=O)c1cc2c(s1)CCCC2 [Example I-117, N-((4-methyl-6-(1H-pyrazolo[3,4-b]pyridin-4-yl)pyridin-3-yl)methyl)-4,5,6,7-tetrahydrobenzo[b]thiophene-2-carboxamide]"
9,< 10 nM,"Cc1nc(-c2ccnc3[nH]ncc23)ccc1CNC(=O)c1cc2c(s1)CCCC2 [Example I-118, N-((2-methyl-6-(1H-pyrazolo[3,4-b]pyridin-4-yl)pyridin-3-yl)methyl)-4,5,6,7-tetrahydrobenzo[b]thiophene-2-carboxamide]"
10,< 10 nM,"O=C(NC1CCCc2cc(-c3ncnc4[nH]ncc34)ccc21)c1cc2ccccc2s1 (stereo not shown) [Example I-120, N-(6-(1H-pyrazolo[3,4-d]pyrimidin-4-yl)-1,2,3,4-tetrahydronaphthalen-1-yl)benzo[b]thiophene-2-carboxamide]"
11,< 10 nM,"Cc1cc(-c2ncnc3[nH]ncc23)ccc1C(C)NC(=O)c1cc2c(s1)CCCC2 (stereo not shown) [Example I-121, N-(1-(2-methyl-4-(1H-pyrazolo[3,4-d]pyrimidin-4-yl)phenyl)ethyl)-4,5,6,7-tetrahydrobenzo[b]thiophene-2-carboxamide]"
12,10 to 99 nM,"Cc1cc(-c2ncnc3cc[nH]c23)ccc1C(C)NC(=O)c1cc2c(s1)CCCC2 (stereo not shown) [Example I-123, N-(1-(2-methyl-4-(5H-pyrrolo[3,2-d]pyrimidin-4-yl)phenyl)ethyl)-4,5,6,7-tetrahydrobenzo[b]thiophene-2-carboxamide]"
13,10 to 99 nM,"Cc1cc(-c2ncnc3nc(N4CCOC(C(=O)O)C4)[nH]c23)ccc1CNC(=O)c1cnc(C(C)(C)C)s1 (stereo not shown) [Example I-124, 4-(6-(4-((2-(tert-butyl)thiazole-5-carboxamido)methyl)-3-methylphenyl)-7H-purin-8-yl)morpholine-2-carboxylic acid]"

# From patent US10280169B2, “Biaryl bruton's tyrosine kinase inhibitors” (BIOGEN MA INC., priority 2013, dated 2019)
